# Test results from patent US7521538B2, “Crystal structure of the ternary complex of 14-3-3/Fusicoccin/PMA and methods for designing new herbicides” (Max-Planck-Gesellschaft zur Foerderung der Wissenschaften …, priority 2003, dated 2009).
# Substitutions are numbered along the chain they refer to. Like-named read-outs stand apart in the source and are kept apart here. Non-standard residues stand in square brackets, D forms with d. Residues, ends and D or L forms follow the SMILES beside them. pT = C[C@@H](OP(=O)(O)O)[C@H](N)C(=O)O
# What was measured:
# [1] = target: T1, 14-3-3z N49Q / PMA-GST fusion construct (Homo sapiens, UniProt P63104, N42Q); experiment: Far-western-blot overlay, 14-3-3 N49Q; format: binding; conditions: mutation N49Q
# T1 construct: made in house
# T1 sequence (P63104 1-245 N42Q): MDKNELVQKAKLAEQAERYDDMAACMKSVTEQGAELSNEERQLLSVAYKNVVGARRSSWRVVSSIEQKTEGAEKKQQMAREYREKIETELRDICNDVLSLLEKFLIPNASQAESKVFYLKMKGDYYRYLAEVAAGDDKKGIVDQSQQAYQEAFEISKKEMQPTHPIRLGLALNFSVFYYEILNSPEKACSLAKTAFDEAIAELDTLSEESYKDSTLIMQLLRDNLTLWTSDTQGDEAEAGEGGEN
# Experimental: (§1) In order to study the functional relevance of selected amino acids within the above-described binding pocket, residues the following point mutants were analysed in respect FC binding: (a) N49Q, (b) D222E, (c) F126E and (d) I175E in the homologous sequence of human 14-3-3z. The mutant proteins were expressed, purified and FC binding were tested in an in vitro assay in the presence of the 66 C-terminal residues of a PMA-GST fusion construct.
# (§2) For the detection of FC binding a far-western-blot (FIG. 4) was performed. In this in vitro assay, the PMA-GST fusion construct, containing the 66 C-terminal residues of PMA, was immobilised on a nitrocellulose membrane via electroblotting of SDS-PAGE-separated proteins. The interacting protein, a his-tagged 14-3-3 construct was allowed to react with the GST-fusion protein in an overlay-solution. The interaction of these two proteins was mediated by fusicoccin. […] The actual binding of the his-tagged 14-3-3 protein was visualized after washing the membrane by immunodetecton with an anti-His-antibody, which was employed as primary antibody.
# 14-3-3c = target: T2, 14-3-3c (Nicotiana tabacum, UniProt P93343); experiment: Isothermal titration calorimetry, ligand binding to 14-3-3c alone; conditions: for binding of the toxin by itself to 14-3-3: unliganded 14-3-3, no peptide
# T2 construct: Tobacco 14-3-3c (Gene bank AAC49892, amino acids 1-260 with an N-terminal His-tag); His-tag (N); made in house; host or cells: E. coli
# T2 sequence (P93343 1-260): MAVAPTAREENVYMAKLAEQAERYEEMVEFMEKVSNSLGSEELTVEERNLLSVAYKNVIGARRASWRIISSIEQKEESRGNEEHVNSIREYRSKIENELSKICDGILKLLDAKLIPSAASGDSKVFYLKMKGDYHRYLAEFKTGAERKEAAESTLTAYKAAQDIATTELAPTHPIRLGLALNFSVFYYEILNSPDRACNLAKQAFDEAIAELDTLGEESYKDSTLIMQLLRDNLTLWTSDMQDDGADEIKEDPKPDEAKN
# Experimental: (§3) In order to obtain more quantitative data with respect to the phosphorylated pentapeptide used in the structural analysis, thermodynamic constants were determined by means of isothermal titration calorimetry (ITC, 16).
# (§4) Binding of ligands to 14-3-3c was measured with a MCS isothermal titration calorimeter (MicroCal Inc., Northampton). Ligands (fusicoccin 0.4 mM; phosphopbeptides 0.5 mM) were titrated in 8 to 20 μl steps by injection into solutions containing 14-3-3c (0.05 mM) alone or 14-3-3c saturated with one of the ligands in 25 mM HEPES buffer pH 6.5, 10 mM MgCl2, 5 mM CaCl2, 5 mM DTE at 35° C. Binding isotherms were fitted using a single binding site model and used to calculate the binding enthalpy (ΔH) and association constant (Ka) of the binding reaction. Dissociation constants (KD=1/Ka), Gibbs free energy changes (ΔG=−RTInKa) and entropy changes (TΔS=ΔH−ΔG) were calculated from ΔH and Ka. For the binding of peptide to a FC/14-3-3c complex, we also used non-saturating conditions of FC and observed two binding events which were fitted independently to K1 and K4. All measurements were repeated at least three times.
# [2] = target: T3, 14-3-3z N49Q / GST-PMA2-CT66 (Homo sapiens, UniProt P63104, N42Q); experiment: GST-pulldown, 14-3-3 N49Q; format: binding; conditions: pull-down, mutation N49Q
# T3 construct: made in house
# T3 sequence (P63104 1-245 N42Q): T1 sequence (P63104 1-245 N42Q)
# Experimental: as §1
# (§5) Alternatively, a second in-vitro method was used to screen for fusicoccin binding. In this pull-down assay (FIG. 5), the GST-PMA fusion protein is immobilized on GSH-sepharose-beads and the his-tagged 14-3-3 protein will bind in the presence of fusioccin to the GST-fusion protein and can subsequently be found in the sepharose-fraction after washing and centrifugation of the beads. The detection again takes place via SDS-PAGE and Western-Blotting with subsequent immunodetection.
# [3] = target: T4, 14-3-3c with phosphopeptide after removal of Val (Nicotiana tabacum, UniProt P93343); experiment: ITC, FC binding to 14-3-3c with phosphopeptide lacking the C-terminal Val; conditions: peptide with C-terminal Val deleted, FIG. 3b lower panel
# T4 construct: Tobacco 14-3-3c (Gene bank AAC49892, amino acids 1-260 with an N-terminal His-tag); His-tag (N); made in house; host or cells: E. coli (14-3-3c); the phosphopeptide was synthesized by Biosyntan (Berlin)
# Experimental: as §4
# (§6) PMA binding to-14-3-3 is unique in that the penultimate C-terminal residue is the phosphorylated threonine (YpTV-COOH). […] Taken together; this explains why there is no effect of FC on any other known 14-3-3-ligand interaction. To date, all plant proteins characterized as interacting directly with 14-3-3 homologs contain the consensus binding motifs with the notable exception of the plasma membrane H^+-ATPase. […]
# [4] = target: T5, 14-3-3z D222E / GST-PMA2-CT66 (Homo sapiens, UniProt P63104, D213E); experiment: GST-pulldown, 14-3-3 D222E; format: binding; conditions: pull-down, mutation D222E
# T5 construct: made in house
# T5 sequence (P63104 1-245 D213E): T1 sequence (P63104 1-245 N42Q) with Q42N, D213E
# Experimental: as §1, §5
# [5] = Solubility of FC in aqueous solutions; format: physicochemical
# [6] = target: T6, 14-3-3z D222E / PMA-GST fusion construct (Homo sapiens, UniProt P63104, D213E); experiment: Far-western-blot overlay, 14-3-3 D222E; format: binding; conditions: mutation D222E
# T6 construct: made in house
# T6 sequence (P63104 1-245 D213E): T1 sequence (P63104 1-245 N42Q) with Q42N, D213E
# Experimental: as §1, §2
# [7] = target: T7, 14-3-3-fusicoccin complex (Nicotiana tabacum, UniProt P93343); experiment: Isothermal titration calorimetry, peptide binding to FC/14-3-3c complex; conditions: for increase of the binding affinity of the peptide by fusicoccin: complete binding cycle, ITC
# T7 construct: Tobacco 14-3-3c (Gene bank AAC49892, amino acids 1-260 with an N-terminal His-tag); His-tag (N); made in house; host or cells: E. coli
# T7 sequence (P93343 1-260): T2 sequence (P93343 1-260)
# Experimental: as §3, §4
# [8] = target: T8, 14-3-3z F126E / PMA-GST fusion construct (Homo sapiens, UniProt P63104, F117E); experiment: Far-western-blot overlay, 14-3-3 F126E; format: binding; conditions: mutation F126E
# T8 construct: made in house
# T8 sequence (P63104 1-245 F117E): T1 sequence (P63104 1-245 N42Q) with Q42N, F117E
# Experimental: as §1, §2
# [9] = target: T9, 14-3-3z I175E / GST-PMA2-CT66 (Homo sapiens, UniProt P63104, I166E); experiment: GST-pulldown, 14-3-3 I175E; format: binding; conditions: pull-down, mutation I175E
# T9 construct: made in house
# T9 sequence (P63104 1-245 I166E): T1 sequence (P63104 1-245 N42Q) with Q42N, I166E
# Experimental: as §1, §5
# [10] = target: T10, 14-3-3z F126E / GST-PMA2-CT66 (Homo sapiens, UniProt P63104, F117E); experiment: GST-pulldown, 14-3-3 F126E; format: binding; conditions: pull-down, mutation F126E
# T10 construct: made in house
# T10 sequence (P63104 1-245 F117E): T1 sequence (P63104 1-245 N42Q) with Q42N, F117E
# Experimental: as §1, §5
# [11] = target: T11, 14-3-3c preloaded with Gln-Ser-Tyr-pThr-Val-Pro (Nicotiana tabacum, UniProt P93343); experiment: ITC, FC binding to 14-3-3c preloaded with C-terminally extended phosphopeptide; conditions: peptide with added C-terminal Pro, FIG. 3b upper panel
# T11 construct: Tobacco 14-3-3c (Gene bank AAC49892, amino acids 1-260 with an N-terminal His-tag); His-tag (N); made in house; host or cells: E. coli (14-3-3c); the phosphopeptide was synthesized by Biosyntan (Berlin)
# T11 sequence (P93343 1-260): T2 sequence (P93343 1-260)
# Experimental: as §4, §6
# [12] = target: T12, binary 14-3-3/peptide complex (Nicotiana tabacum, UniProt P93343); experiment: Isothermal titration calorimetry, FC titrated to 14-3-3c saturated with peptide; format: binding; conditions: ITC, 35° C., pH 6.5
# T12 construct: Tobacco 14-3-3c (Gene bank AAC49892, amino acids 1-260 with an N-terminal His-tag); His-tag (N); made in house; host or cells: E. coli (14-3-3c); the phosphopeptide was synthesized by Biosyntan (Berlin)
# T12 sequence (P93343 1-260): T2 sequence (P93343 1-260)
# Experimental: as §3, §4
# [13] = target: T13, 14-3-3z I175E / PMA-GST fusion construct (Homo sapiens, UniProt P63104, I166E); experiment: Far-western-blot overlay, 14-3-3 I175E; format: binding; conditions: mutation I175E
# T13 construct: made in house
# T13 sequence (P63104 1-245 I166E): T1 sequence (P63104 1-245 N42Q) with Q42N, I166E
# Experimental: as §1, §2
# [14] = target: T14, wild type 14-3-3 / PMA-GST fusion construct (66 C-terminal residues of PMA) (Homo sapiens, UniProt P63104); experiment: Far-western-blot overlay, wild type 14-3-3; format: binding; conditions: 0, 500 nM and 1000 nM fusicoccin
# T14 construct: made in house
# T14 sequence (P63104 1-245): T1 sequence (P63104 1-245 N42Q) with Q42N
# Experimental: as §1, §2
# 14-3-3 = target: T15, 14-3-3 (Nicotiana tabacum, UniProt P93343); experiment: Binding of non-phosphorylated peptide to 14-3-3 (not shown, method not stated)
# T15 sequence (P93343 1-260): T2 sequence (P93343 1-260)
# Excerpt: The phosphopeptide occupies the central binding groove of 14-3-3c in an extended conformation. The phosphate moiety of the phosphothreonine forms electrostatic interactions with a positively charged patch formed by residues Lys56, Arg63, and Arg136 and a H-bond to Tyr137 (FIG. 1b). […] Additionally, there are a number of H-bonds (cut-off limit 3.4 Å) between the peptide, mostly from the main-chain, and conserved protein side-chains. The peptide's C-terminal barboxylate is mostly contacted by basic residues and the side chains of the Val and Tyr residue flanking the phosphothreonine form van der Waals contacts to the protein (FIG. 1b). The structure confirms the notion that the C-terminal YTV-motif is highly conserved in plant P-type H^+-ATPases.
molecule,measurement,setting,value
C=CC(C)(C)OC[C@H]1O[C@H](O[C@@H]2C3=C([C@H](C)COC(C)=O)C[C@H](O)[C@]3(C)/C=C3/[C@@H](COC)CC[C@H]3[C@@H](C)[C@H]2O)[C@H](O)[C@@H](OC(C)=O)[C@@H]1O [Fusicoccin],fusicoccin mediated PMA binding,[1],strong reduction
same,Kd,"14-3-3c; calculated from K4 and K1×K2=K3×K4, read-out: affinity of FC to 14-3-3, more reliable value",66 µM
same,Kd,"14-3-3c; direct ITC determination, somewhat unreliable, read-out: affinity of FC to 14-3-3",~50 µM
same,binding of the toxin by itself to 14-3-3,14-3-3c; listed as FC,weak binding
same,binding of the toxin by itself to 14-3-3,14-3-3c; listed as toxin,binds only weakly
same,fusicoccin mediated PMA binding,[2],strong reduction
same,FC binding,[3],drastically weakens the binding
same,FC binding,[3]; listed as FC,significant lower binding affinity
same,fusicoccin mediated PMA binding,[4],strong reduction
same,solubility in aqueous solutions,[5],insolubility
same,fusicoccin mediated PMA binding,[6],strong reduction
same,increase of the binding affinity of the peptide by fusicoccin,[7],93 fold
same,increase of the binding affinity of the peptide by fusicoccin,[7]; listed as toxin,more than 90 fold
same,fusicoccin mediated PMA binding,[8],complete inhibition of binding
same,fusicoccin mediated PMA binding,[9],complete inhibition of binding
same,fusicoccin mediated PMA binding,[10],complete inhibition of binding
same,FC binding,[11],drastically weakens the binding
same,FC binding,[11]; listed as FC,severely impaired
same,Kd,[12],0.7 µM
same,fusicoccin mediated PMA binding,[13],complete inhibition of binding
same,fusicoccin mediated interaction of 14-3-3 with PMA-GST,[14],interaction was only observed in the presence of fusicoccin
"CC(C)[C@H](NC(=O)[C@@H](NC(=O)[C@H](Cc1ccc(O)cc1)NC(=O)[C@H](CO)NC(=O)[C@@H](N)CCC(N)=O)[C@@H](C)OP(=O)(O)O)C(=O)O [peptide, Gln-Ser-Tyr-pThr-Val] (H-QSY[pT]V-OH; N-terminus assumed)",Kd,14-3-3c,2.5 µM
same,enthalpy (ΔH) of peptide binding,14-3-3c; unliganded 14-3-3,-10 kcal/mol
same,−TAS of peptide binding,14-3-3c; unliganded 14-3-3,1.7 kcal/mol
same,enthalpy (ΔH) of peptide binding,[7]; 14-3-3-FC complex,-11.8 kcal/mol
same,−TAS of peptide binding,[7]; 14-3-3-FC complex,0.4 kcal/mol
same,binding between 14-3-3 and the peptide,"[7]; after saturation of the binding site with FC, FIG. 3A",much tighter
Gln-Ser-Tyr-Thr-Val (QSYTV; printed: Gln-Ser-Tyr-Thr-Val) [non-phosphorylated version of the PMA2 C-terminal pentapeptide],binding to 14-3-3,14-3-3,binding could not be detected
